From US9809542B2, “Spiroheterocyclically substituted tetramic acid derivatives” (BAYER INTELLECTUAL PROPERTY GMBH, priority 2010, dated 2017)

Columns and labels:
Type in all cases: in vivo
[1] = system: green peach aphid (Myzus persicae); assay: Myzus test (MYZUPE spray treatment); conditions: application rate 500 g/ha, Chinese cabbage leaf discs, after 6 days
Procedure: Myzus Test (MYZUPE Spray Treatment)
Solvents: 78 parts by weight of acetone
(§1) • 1.5 parts by weight of dimethylformamide Emulsifier: 0.5 part by weight of alkylaryl polyglycol ether
To produce a suitable preparation of active compound, 1 part by weight of active compound is mixed with the stated amounts of solvents and emulsifier, and the concentrate is diluted with emulsifier-containing water to the desired concentration. Discs of Chinese cabbage (Brassica pekinensis) which are infested by all stages of the green peach aphid (Myzus persicae) are sprayed with an active compound preparation of the desired concentration. After 6 days, the effect in % is determined. 100% means that all aphids have been killed; 0% means that none of the aphids have been killed.

Boophilus microplus = Boophilus microplus test (BOOPMI injection); conditions: application rate 20 μg/animal; injection into the abdomen; after 7 days
Procedure: Boophilus microplus Test (BOOPMI Injection)
(§2) Solvent: Dimethyl sulphoxide
To produce a suitable preparation of active compound, 10 mg of active compound are mixed with 0.5 ml of solvent and the concentrate is diluted with solvent to the desired concentration. The solution of active compound is injected into the abdomen (Boophilus microplus) and the animals are transferred into dishes and stored in a climatized room. The activity is monitored for deposition of fertile eggs.
After 7 days, the effect in % is determined. 100% means that none of the ticks has laid any fertile eggs.

[2] = system: larva of the mustard beetle (Phaedon cochleariae); assay: Phaedon test (PHAECO spray treatment); conditions: application rate 500 g/ha, Chinese cabbage leaf discs, after 7 days
Procedure: Phaedon Test ([…] Spray Treatment) Solvents: 78.0 parts by weight of acetone • • 1.5 parts by weight of dimethylformamide Emulsifier: 0.5 part by weight of alkylaryl polyglycol ether To produce a suitable preparation of active compound, one part by weight of active compound is mixed with the stated amounts of solvents and emulsifier, and the concentrate is diluted with emulsifier-containing water to the desired concentration. Discs of Chinese cabbage (Brassica pekinensis) are sprayed with an active compound preparation of the desired concentration and, after drying, populated with larva of the mustard beetle (Phaedon cochleariae).

[3] = system: cotton aphid (Aphis gossypii); assay: Aphis gossypii test; conditions: cotton plants; for Kill rate after 6 days: no additive
Procedure: (§3) Solvent: 7 parts by weight of dimethylformamide
(§4) Emulsifier: 2 parts by weight of alkylaryl polyglycol ether
To produce a suitable preparation of active compound, 1 part by weight of active compound is mixed with the stated amounts of solvent and emulsifier, and the concentrate is diluted with emulsifier-containing water to the desired concentration. For application with ammonium salts and penetrants (rapeseed oil methyl esters 500 EW) these are in each case added in a concentration of 1000 ppm of a.i. to the spray liquor.
Cotton plants (Gossypium hirsutum) which are heavily infested by the cotton aphid (Aphis gossypii) are sprayed to runoff point with the preparation of active compound at the desired concentration.
After the desired period of time, the kill in % is determined. 100% means that all aphids have been killed; 0% means that none of the aphids have been killed.

[4] = system: caterpillars of the armyworm (Spodoptera frugiperda); assay: Spodoptera frugiperda test (SPODFR spray treatment); conditions: application rate 500 g/ha, maize leaf discs, after 7 days
Procedure: Spodoptera frugiperda Test (SPODFR Spray Treatment)
Solvents: 78.0 parts by weight of acetone
as §1
To produce a suitable preparation of active compound, 1 part by weight of active compound is mixed with the stated amounts of solvents and emulsifier, and the concentrate is diluted with emulsifier-containing water to the desired concentration. Discs of maize leaves (Zea mays) are sprayed with an active compound preparation of the desired concentration and, after drying, populated with caterpillars of the armyworm (Spodoptera frugiperda).
After 7 days, the effect in % is determined. 100% means that all caterpillars have been killed; 0% means that none of the caterpillars have been killed.

[5] = system: green peach aphid (Myzus persicae); assay: Myzus persicae test, activity boost by ammonium salts in combination with penetrants; conditions: bell pepper plants; for Kill rate after 6 days: no additive
Procedure: Example 9: Activity Boost by Ammonium Salts in Combination with Penetrants
as §3, §4
To produce a suitable preparation of active compound, 1 part by weight of active compound is mixed with the stated amounts of solvent and emulsifier, and the concentrate is diluted with water to the desired concentration. For application with ammonium salts and penetrants (rapeseed oil methyl ester 500 EW) these are in each case added in a concentration of 1000 ppm of a.i. to the spray liquor.
Bell pepper plants (Capsicum annuum) heavily infested by the green peach aphid (Myzus persicae) are sprayed to runoff point with the preparation of active compound at the desired concentration. After the desired period of time, the kill in % is determined. 100% means that all animals have been killed; 0% means that none of the animals have been killed.

Lucilia cuprina larva = assay: Lucilia cuprina test (LUCICU); conditions: application rate 100 ppm; treated horse meat; after 2 days
Procedure: Lucilia cuprina Test (LUCICU)
as §2
To produce a suitable preparation of active compound, 10 mg of active compound are mixed with 0.5 ml of dimethyl sulphoxide and the concentrate is diluted with water to the desired concentration. Containers containing horse meat treated with the active compound preparation of the desired concentration are populated with about 20 Lucilia cuprina larva.
After 2 days, the kill in % is determined. 100% means that all larva have been killed; 0% means that none of the larva have been killed.

Structure (SMILES) | efficacy (effect in %, aphids killed) [1] | efficacy (effect in %, 100% = none of the ticks has laid any fertile eggs) (Boophilus microplus) | efficacy (effect in %, beetle larva killed) [2] | Kill rate after 6 days, +AS (1000 ppm) ([3]; 20 ppm) | Kill rate after 6 days, +RME (1000 ppm) ([3]; 20 ppm) | Kill rate after 6 days, +RME + AS (1000 ppm each) ([3]; 20 ppm) | Kill rate after 6 days ([3]; 20 ppm) | efficacy (effect in %, caterpillars killed) [4] | Kill rate after 6 days, +AS (1000 ppm) ([5]; 4 ppm) | Kill rate after 6 days, +RME (1000 ppm) ([5]; 4 ppm) | Kill rate after 6 days, +RME + AS (1000 ppm each) ([5]; 4 ppm) | Kill rate after 6 days ([5]; 4 ppm) | efficacy (kill in %) (Lucilia cuprina larva) | further results
CON1CCC2(CC1)NC(=O)C(c1c(C)ccc(-c3ccc(F)cc3)c1C)=C2O [I-a-1] | 90% | 95% | 83% | 40% | 55% | 100% | 0% | 83% | 30% | 55% | 100% | 0% | 90% | Kill rate after 6 days, +AS (1000 ppm) ([5]; 20 ppm): 90%; Kill rate after 6 days, +RME (1000 ppm) ([5]; 20 ppm): 95%; Kill rate after 6 days, +RME + AS (1000 ppm each) ([5]; 20 ppm): 100%; Kill rate after 6 days ([5]; 20 ppm): 60%
CCON1CCC2(CC1)NC(=O)C(c1c(C)ccc(-c3ccc(F)cc3)c1C)=C2O [I-a-2] | 100% | 90% | 100% | 25% | 20% | 90% | 0% | 100% | 20% | 95% | 95% | 0% | 90% | Kill rate after 6 days, +AS (1000 ppm) ([3]; 4 ppm): 0%; Kill rate after 6 days, +RME (1000 ppm) ([3]; 4 ppm): 0%; Kill rate after 6 days, +RME + AS (1000 ppm each) ([3]; 4 ppm): 45%; Kill rate after 6 days ([3]; 4 ppm): 0%; Kill rate after 6 days, +AS (1000 ppm) ([5]; 0.8 ppm): 0%; Kill rate after 6 days, +RME (1000 ppm) ([5]; 0.8 ppm): 0%; Kill rate after 6 days, +RME + AS (1000 ppm each) ([5]; 0.8 ppm): 40%; Kill rate after 6 days ([5]; 0.8 ppm): 0%
